In US6894058B1, “Use of 3-hydroxy-3-methylgutaryl coenzym a reductase inhibitors for the manufacture of a medicament for the treatment of diabetic neuropathy” (AstraZeneca AB, priority 1999, dated 2005):

Columns and labels:
Diabetic rats [1] = assay: Sciatic nerve motor conduction velocity in streptozotocin-diabetic rats; assay type: in vivo, Sprague-Dawley rats; settings: for Sciatic Nerve Motor Conduction Velocity: group mean ± SEM (number of rats in brackets); for nerve conduction velocity (NCV), effect in words: animal model of diabetic neuropathy
Protocol: Motor nerve conduction velocity was measured (as previously described by Cameron et al, Diabetologia, 1993, Vol. 36, pages 299-304) between sciatic notch and knee in the nerve branch to tibialis anterior muscle, which is representative of the whole sciatic nerve in terms of susceptibility to diabetes and treatment effects.

Diabetic rats [2] = assay: Sciatic nerve blood flow by hydrogen clearance microelectrode polarography in streptozotocin-diabetic rats; settings: for Sciatic Nerve Blood Flow: group mean ± SEM (number of rats in brackets); for nerve blood flow, effect in words: animal model of diabetic neuropathy
Diabetic rats [3] = assay: Saphenous nerve sensory conduction velocity in streptozotocin-diabetic rats; assay type: in vivo, Sprague-Dawley rats; settings: for Saphenous Nerve Sensory Conduction Velocity: group mean ± SEM (number of rats in brackets)
Protocol: Sensory conduction velocity in saphenous nerve was measured between the groin and ankle (as previously described by Cameron et al. Quarterly Journal of Experimental Physiology, 1989, vol. 74, pages 917-926).

[4] = Diabetic + 2 weeks of dosing at 20 mg/kg
[5] = Diabetic + 2 weeks of dosing at 50 mg/kg
[6] = Rattus norvegicus, Dose response, 5 groups of 8 rats, dose ranged from 0.3-20 mg/kg

| Structure (SMILES) | Sciatic Nerve Motor Conduction Velocity (Diabetic rats [1]; [4]) | Sciatic Nerve Motor Conduction Velocity (Diabetic rats [1]; [5]) | nerve conduction velocity (NCV), effect in words (Diabetic rats [1]) | Sciatic Nerve Blood Flow (Diabetic rats [2]; [5]) | nerve blood flow, effect in words (Diabetic rats [2]) | Saphenous Nerve Sensory Conduction Velocity (Diabetic rats [3]; [4]) | Saphenous Nerve Sensory Conduction Velocity (Diabetic rats [3]; [5]) | ED50 (Diabetic rats [1]; [6]) | Sciatic Nerve Blood Flow (Diabetic rats [2]; [4]) | ED50 (Diabetic rats [3]; [6]) |
| --- | --- | --- | --- | --- | --- | --- | --- | --- | --- | --- |
| CC(C)c1c(C(=O)Nc2ccccc2)c(-c2ccccc2)c(-c2ccc(F)cc2)n1CC[C@@H](O)C[C@@H](O)CC(=O)O [Atorvastatin, atorvastatin] | 61.53 ± 0.76 (6) | 63.59 ± 0.69 (6) | improvement | 16.96 ± 1.39 ml/min/100 g (6) | improvement | 59.77 m/s ± 0.93 (6) | 60.72 m/s ± 0.94 (6) | – | – | – |
| CC(C)c1nc(N(C)S(C)(=O)=O)nc(-c2ccc(F)cc2)c1/C=C/[C@@H](O)C[C@@H](O)CC(=O)O [The AGENT, (E)-7-[4-(4-fluorophenyl)-6-isopropyl-2-[methyl(methylsulfonyl)amino]pyrimidin-5-yl](3R,5S)-3,5-dihydroxyhept-6-enoic acid] | 63.34 ± 0.61 (8) | – | improvement | – | improvement | 60.57 m/s ± 0.83 (8) | – | 2.3 mg/kg | 16.19 ± 0.51 ml/min/100 g (8) | 0.9 mg/kg |
